Experimental data reported in ChEMBL document CHEMBL2094260, “Malaria Box Tuberculosis Screening Data”.
Converted amounts (≈) assume the structure as drawn.

Assays:
[1] = MMV: Cytotoxicity CRC and LD50 against HepG2; format: toxicity, cell-based; details: human, HepG2 cells; read-out: LD50 (the source's name)
[2] = test system: Mycobacterium tuberculosis; assay: MMV: Screen against Mtb, single point, replicating, at 25uM; format: functional
[3] = test system: Mycobacterium tuberculosis; assay: MMV: Screen against Mtb, single point, non replicating, at 25uM; format: functional
[4] = test system: Mycobacterium tuberculosis; assay: MMV: CRC and MIC90 against Mtb (replicating); format: functional
[5] = test system: Mycobacterium tuberculosis; assay: MMV: CRC and MIC90 against Mtb (non replicating); format: functional

Q: What does the source list for `OCCNc1nc(Nc2ccc(Cl)c(Cl)c2)nc2ccccc12`?
A: CC50 [1]: 7.18 µM; inhibition at 25 µM [2]: 94%; inhibition at 25 µM [3]: 84.5%; MIC90 [4]: 3.59 µM (≈ 1.25 µg/mL); MIC90 [5]: 20.2 µM (≈ 7.05 µg/mL)
